From patent US20220024980A1, “LIPO-GLYCOPEPTIDE CLEAVABLE DERIVATIVES AND USES THEREOF” (INSMED INCORPORATED, priority 2018, published 2022) come the findings set out here.

The test system of this assay is MRSA (USA300 ATCC BAA-1556). Briefly: Minimum inhibitory concentrations against MRSA by broth microdilution. Particulars: Mueller Hinton II broth with 0.002% (v/v) Polysorbate-, compound = scaffold with R′ and R″ (table column). The class given is cell-based, Staphylococcus aureus. The protocol: Example 7—Minimum Inhibitory Concentrations Against MRSA Determined Using Broth Microdilution
In vitro activities were determined using CLSJ-guided broth susceptibility testing to measure drug minimum inhibitory concentrations (MICs) of compounds against MRSA (USA300 ATCC BAA-1556). The test medium used for the MIC assay was Mueller Hinton II broth made with 0.002% (v/v) Polysorbate-. Media was prepared fresh on the day of testing and stored according to guidelines from CLSJ.

Converted amounts (≈) assume the structure as drawn.

The term MIC denotes the least concentration at which growth counts as inhibited. The low end stands for greater potency, the high end for weaker potency. `CCCCCCCCCCCC(=O)NCCNC1(C)CC(OC2C(Oc3c4cc5cc3Oc3ccc(cc3Cl)C(O)C3NC(=O)C(NC(=O)C5NC(=O)C(CC(N)=O)NC(=O)C(NC(=O)C(CC(C)C)NC)C(O)c5ccc(c(Cl)c5)O4)c4ccc(O)c(c4)-c4c(O)cc(O)cc4C(C(=O)O)NC3=O)OC(CO)C(O)C2O)OC(C)C1O` (centres unmarked) [RV62 (R″ = H)]: the MIC was found to be 0.016 µg/mL (≈ 0.00955 µM).

The compound `CCCCCCCCCCCCNC(=O)CNC1(C)CC(OC2C(Oc3c4cc5cc3Oc3ccc(cc3Cl)C(O)C3NC(=O)C(NC(=O)C5NC(=O)C(CC(N)=O)NC(=O)C(NC(=O)C(CC(C)C)NC)C(O)c5ccc(c(Cl)c5)O4)c4ccc(O)c(c4)-c4c(O)cc(O)cc4C(C(=O)O)NC3=O)OC(CO)C(O)C2O)OC(C)C1O` (centres unmarked) [RV95 (R″ = H)] gave an MIC of 0.031 µg/mL (≈ 0.0185 µM).
